From ChEMBL document CHEMBL5331101, “Synthesis and evaluation of N-sulfonylpiperidine-3-carboxamide derivatives as capsid assembly modulators inhibiting HBV in vitro and in HBV-transgenic mice” (Eur J Med Chem, 2023)
Active and inactive are the calls of the source. The calls are words filed in the database; no cut-off is given here.

What was measured:
Hepatitis B virus [1] = test: Antiviral activity against HBV infected human HePAD38 cells assessed as reduction in HBsAg level in cell supernatant at 0.625 to 10 uM and measured after 6 days by ELISA analysis; type: functional, organism-based; conditions: dose 0.625-10 µM, time 6.0 day
Hepatitis B virus [2] = test: Antiviral activity against HBV infected in transgenic C57BL/6 mouse assessed as reduction in serum HBsAg level at 100 mg/kg, po BID measured for 12 days by ELISA analysis; type: functional, organism-based; conditions: time 12.0 day
Hepatitis B virus [3] = test: Antiviral activity against HBV infected in human HePAD38 cells assessed as reduction of capsid associated HBV DNA; type: functional, organism-based
Hepatitis B virus [4] = test: Antiviral activity against HBV genotype D infected in human HepG2 cells assessed as inhibition of viral replication; type: functional, organism-based
Hepatitis B virus [5] = test: Antiviral activity against HBV infected in transgenic C57BL/6 mouse assessed as inhibition of viral replication by measuring log reduction in liver HBV DNA level at 100 mg/kg, po BID measured for 12 days by RT-PCR analysis; type: functional; conditions: time 12 day
Hepatitis B virus [6] = test: Antiviral activity against wild type HBV infected in human HepG2 cells assessed as inhibition of viral replication; type: functional, organism-based
Hepatitis B virus [7] = test: Antiviral activity against ETV-resistant HBV infected in human HepG2 cells assessed as inhibition of viral replication; type: functional, organism-based
Hepatitis B virus [8] = test: Antiviral activity against HBV infected in human HePAD38 cells assessed as reduction in intracellular 3.5 Kb HBV RNA level at 0.625 to 10 uM and incubated for 6 days by real-time PCR analysis; type: functional, organism-based; conditions: dose 0.625-10 µM, time 6.0 day
Hepatitis B virus [9] = test: Antiviral activity against HBV infected in transgenic C57BL/6 mouse assessed as reduction in intrahepatic 3.5 kb HBV RNA level at 100 mg/kg, po BID measured for 12 days by RT-PCR analysis; type: functional, organism-based; conditions: time 12.0 day
Hepatitis B virus [10] = test: Antiviral activity against HBV infected in transgenic C57BL/6 mouse assessed as reduction in serum HBeAg level at 30 mg/kg, po BID measured for 12 days by ELISA analysis; type: functional, organism-based; conditions: time 12.0 day
[11] = Cytotoxicity against human HepAD38 cells assessed as reduction in cell viability incubated for 6 days by CCK-8 assay; type: functional; conditions: HePAD38, 144 h, time 6 day
Hepatitis B virus [12] = test: Antiviral activity against HBV infected in transgenic C57BL/6 mouse assessed as inhibition of viral replication by measuring log reduction in serum HBV DNA level at 100 mg/kg, po BID measured for 12 days by RT-PCR analysis; type: functional; conditions: time 12 day
Hepatitis B virus [13] = test: Antiviral activity against HBV infected in human HePAD38 cells assessed as reduction in intracellular core HBV DNA level at 20 uM incubated for 6 days by qPCR analysis relative to control; type: functional; design: scale not given: the % may be the effect or the level left; conditions: time 6 day
Hepatitis B virus [14] = test: Antiviral activity against HBV infected in human HePAD38 cells assessed as reduction in HBV core DNA level and incubated for 6 days by southern blot analysis; type: functional, organism-based; conditions: dose 0.625-10 µM, time 6.0 day
Hepatitis B virus [15] = test: Antiviral activity against HBV infected in transgenic C57BL/6 mouse assessed as inhibition of viral replication by measuring log reduction in liver HBV DNA level at 30 mg/kg, po BID measured for 12 days by RT-PCR analysis; type: functional; conditions: time 12 day
Hepatitis B virus [16] = test: Antiviral activity against HBV infected in human HePAD38 cells assessed as reduction in […] level upto10 uM measured for 6 days by agarose gel electrophoresis-based assay; type: functional, organism-based; conditions: dose 10.0 µM, time 6.0 day
[17] = Toxicity in C57BL/6 mouse assessed as histopathological changes in liver at 30 mg/kg, po measured after 12 days by H and E staining analysis; type: organism-based; conditions: in vivo, 288 h, time 12 day
Hepatitis B virus [18] = test: Antiviral activity against HBV infected in transgenic C57BL/6 mouse assessed as reduction in serum HBeAg level at 100 mg/kg, po BID measured for 12 days by ELISA analysis; type: functional, organism-based; conditions: time 12.0 day
Hepatitis B virus [19] = test: Effect on capsid morphology in human HePAD38 cells infected with Hepatitis B virus at 5 uM incubated for 6 days by immunofluorescence analysis; type: functional, organism-based; conditions: time 6.0 day
Hepatitis B virus [20] = test: Antiviral activity against HBV infected in transgenic C57BL/6 mouse assessed as reduction in serum HBsAg level at 30 mg/kg, po BID measured for 12 days by ELISA analysis; type: functional, organism-based; conditions: time 12.0 day
Hepatitis B virus [21] = test: Antiviral activity against HBV infected in human HePAD38 cells assessed as reduction in capsid formation upto 10 uM measured for 6 days by agarose gel electrophoresis-based assay; type: functional, organism-based; conditions: time 6.0 day
[22] = Hepatotoxicity in C57BL/6 mouse assessed as effect on AST level in serum at 100 mg/kg, po BID measured for 12 days; type: toxicity, organism-based; conditions: in vivo, 288 h, time 12 day
[23] = Toxicity in C57BL/6 mouse assessed as histopathological changes in liver at 100 mg/kg, po measured after 12 days by H and E staining analysis; type: organism-based; conditions: in vivo, 288 h, time 12 day
Hepatitis B virus [24] = test: Antiviral activity against HBV infected in human HePAD38 cells assessed as reduction in capsid formation at 0.625 to 10 uM measured for 6 days by agarose gel electrophoresis-based assay; type: functional, organism-based; conditions: dose 0.625-10 µM, time 6.0 day
Hepatitis B virus [25] = test: Antiviral activity against HBV infected in human HePAD38 cells assessed as reduction in intracellular 3.5 Kb HBV RNA level at 0.625 to 10 uM and incubated for 6 days by Northern blot analysis; type: functional, organism-based; conditions: dose 0.625-10 µM, time 6.0 day
Hepatitis B virus [26] = test: Antiviral activity against HBV infected in human HePAD38 cells assessed as reduction in encapsidated pgRNA at 0.625 to 10 uM incubated for 6 days by northern blot analysis; type: functional, organism-based; conditions: dose 0.625-10 µM, time 6.0 day
Hepatitis B virus [27] = test: Antiviral activity against HBV infected in human HepAD38 cells assessed as effect on capsid morphology at 20 uM incubated for 3 to 7 days by transmission electron microscopy; type: functional, organism-based; conditions: time 3-7 day
Hepatitis B virus [28] = test: Antiviral activity against HBV genotype A infected in human HepG2 cells assessed as inhibition of viral replication; type: functional, organism-based
Hepatitis B virus [29] = test: Antiviral activity against HBV infected in human HePAD38 assessed as reduction on HBsAg level at 20 uM by ELISA analysis relative to control; type: functional; design: scale not given: the % may be the effect or the level left
Hepatitis B virus [30] = test: Antiviral activity against HBV infected in human HePAD38 assessed as reduction on HBeAg level at 20 uM by ELISA analysis relative to control; type: functional; design: scale not given: the % may be the effect or the level left
[31] = Hepatotoxicity in C57BL/6 mouse assessed as effect on AST level in serum at 30 mg/kg, po BID measured for 12 days; type: toxicity, organism-based; conditions: in vivo, 288 h, time 12 day
Hepatitis B virus [32] = test: Antiviral activity against HBV infected in human HePAD38 cells assessed as decay of viral capsid protein by agarose gel electrophoresis-based assay; type: functional, organism-based
Hepatitis B virus [33] = test: Antiviral activity against HBV infected in transgenic C57BL/6 mouse assessed as reduction in intrahepatic 3.5 kb HBV RNA level at 30 mg/kg, po BID measured for 12 days by RT-PCR analysis; type: functional, organism-based; conditions: time 12.0 day
Hepatitis B virus [34] = test: Antiviral activity against HBV infected human HePAD38 cells assessed as reduction in HBeAg level in cell supernatant at 0.625 to 10 uM and measured after 6 days by ELISA analysis; type: functional, organism-based; conditions: dose 0.625-10 µM, time 6.0 day
Hepatitis B virus [35] = test: Antiviral activity against HBV infected in human HePAD38 cells assessed as reduction in capsid formation measured for 6 days by agarose gel electrophoresis-based assay; type: functional, organism-based; conditions: time 6.0 day
Hepatitis B virus [36] = test: Antiviral activity against HBV genotype C infected in human HepG2 cells assessed as inhibition of viral replication; type: functional, organism-based
Hepatitis B virus [37] = test: Antiviral activity against HBV infected in human HePAD38 cells assessed as decay of viral core protein by agarose gel electrophoresis-based assay; type: functional, organism-based
[38] = Selectivity index, ratio of CC50 for cytotoxicity against human HepAD38 cells to EC50 for antiviral activity against HBV infected in human HePAD38 cells; type: toxicity, cell-based; conditions: read-out: Ratio CC50/EC50
[39] = Hepatotoxicity in C57BL/6 mouse assessed as effect on ALT level in serum at 100 mg/kg, po BID measured for 12 days; type: toxicity, organism-based; conditions: in vivo, 288 h, time 12 day
[40] = Hepatotoxicity in C57BL/6 mouse assessed as effect on ALT level in serum at 30 mg/kg, po BID measured for 12 days; type: toxicity, organism-based; conditions: in vivo, 288 h, time 12 day
Hepatitis B virus [41] = test: Antiviral activity against HBV genotype B infected in human HepG2 cells assessed as inhibition of viral replication; type: functional, organism-based
Hepatitis B virus [42] = test: Antiviral activity against HBV infected in transgenic C57BL/6 mouse assessed as inhibition of viral replication by measuring log reduction in serum HBV DNA level at 30 mg/kg, po BID measured for 12 days by RT-PCR analysis; type: functional; conditions: time 12 day

CCOC(=O)c1c(S(=O)(=O)N2CCC[C@H](C(=O)Nc3ccc(F)c(C)c3)C2)c(C)n(CC(F)(F)F)c1C
Activity (Hepatitis B virus [1]): inactive | Activity (Hepatitis B virus [2]): inactive | EC50 (Hepatitis B virus [3]): 110 nM | EC50 (Hepatitis B virus [4]): 240 nM | log(activity) (Hepatitis B virus [5]): 0.98 | EC50 (Hepatitis B virus [6]): 3.1 nM | EC50 (Hepatitis B virus [7]): 7.2 nM | Activity (Hepatitis B virus [8]): Active | Activity (Hepatitis B virus [9]): Active | Activity (Hepatitis B virus [10]): Active | CC50 [11]: 82.3 µM | log(activity) (Hepatitis B virus [12]): 2.42 | Activity (Hepatitis B virus [13]): 12% | Activity (Hepatitis B virus [14]): Dose-Dependent Effect | log(activity) (Hepatitis B virus [15]): 0.43 | Activity (Hepatitis B virus [16]): Active | Activity [17]: Non-Toxic | Activity (Hepatitis B virus [18]): Active | Activity (Hepatitis B virus [19]): inactive | Activity (Hepatitis B virus [20]): inactive | Activity (Hepatitis B virus [21]): Active | Activity [22]: Non-Toxic | Activity [23]: Non-Toxic | Activity (Hepatitis B virus [24]): Active | Activity (Hepatitis B virus [25]): Active | Activity (Hepatitis B virus [26]): Active | Activity (Hepatitis B virus [27]): inactive | EC50 (Hepatitis B virus [28]): 130 nM | Activity (Hepatitis B virus [29]): 101.8% | Activity (Hepatitis B virus [30]): 36.9% | Activity [31]: Non-Toxic | Activity (Hepatitis B virus [32]): inactive | Activity (Hepatitis B virus [33]): Active | Activity (Hepatitis B virus [34]): Active | Activity (Hepatitis B virus [35]): Dose-Dependent Effect | EC50 (Hepatitis B virus [36]): 160 nM | Activity (Hepatitis B virus [37]): inactive | selectivity ratio [38]: 775 | Activity [39]: Non-Toxic | Activity [40]: Non-Toxic | EC50 (Hepatitis B virus [41]): 120 nM | log(activity) (Hepatitis B virus [42]): 1.37
